Key:
Type in all cases: in vivo
[1] = system: Avena fatua; assay: Test Example 5: herbicidal effect by foliage application, plastic box (symbol I); details: 320 g/ha, 3 weeks after application
Outline: (§1)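 After sowing into sterilized diluvial soil and growing two weeks under glass at 25° C. to 30° C., seedlings receive a uniform foliar spray of diluted emulsion. Damage is judged visually three weeks on.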

[2] = system: rice plant; assay: Test Example 5: effect on crop by foliage application, plastic box (symbol b); details: 320 g/ha, 3 weeks after application
Outline: (§2)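 Crop seed is sown alongside grass and broadleaf weed species in spots in sterilized diluvial soil, then covered to a depth of about 1.5 cm. Plants grow in a greenhouse kept at 25° C. to 30° C.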

[3] = system: rapeseed; assay: Test Example 5: effect on crop by foliage application, plastic box (symbol g); details: 320 g/ha, 3 weeks after application
Outline: as §2

[4] = system: Echinochloa oryzacola Vasing.; assay: Test Example 1: herbicidal activity, application before weed generation in submerged conditions (symbol A); details: application herbicide amount 320 g/ha
Outline: (§3)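 Scores run 0 to 5 by herbicidal ratio, with 5 meaning 90% or more and 0 meaning 5% or lower, read 3 weeks after treatment. Compound was applied as a diluted emulsion to the water surface of submerged alluvial-soil pots on the day weed seeds were sown.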

[5] = system: Scirpus juncoides; assay: Test Example 1: herbicidal activity, application before weed generation in submerged conditions (symbol B); details: application herbicide amount 320 g/ha
Outline: as §3

[6] = system: Apera spica-venti; assay: Test Example 5: herbicidal effect by foliage application, plastic box (symbol L); details: 320 g/ha, 3 weeks after application
Outline: as §1

[7] = system: Veronica persica; assay: Test Example 5: herbicidal effect by foliage application, plastic box (symbol R); details: 320 g/ha, 3 weeks after application
Outline: as §1

[8] = system: Alopecurus myosuroides; assay: Test Example 5: herbicidal effect by foliage application, plastic box (symbol J); details: 320 g/ha, 3 weeks after application
Outline: as §1

[9] = system: directly sowed rice plant; assay: Test Example 3: effect on crop by foliage application, Wagner pot (symbol b); details: application herbicide amount 320 g/ha
Outline: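 Greenhouse culture at 25–30 °C of seeded rice, Cyperus difformis, Leptochloa chinensis and Echinochloa crus-galli var. crus-galli, in alluvial soil held under 0.1–0.5 cm of water in a Wagner pot.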

[10] = system: Amaranthus retroflexus; assay: Test Example 5: herbicidal effect by foliage application, plastic box (symbol N); details: 320 g/ha, 3 weeks after application
Outline: as §1

[11] = system: Leptochloa chinensis; assay: Test Example 3: herbicidal effect by foliage application, Wagner pot (symbol D); details: application herbicide amount 320 g/ha
Outline: (§4)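 Alluvial soil was flooded to a depth of 0.1–0.5 cm, seeded with the weeds and rice, and kept in a greenhouse at 25–30 °C. After 14 days of growth, the foliage received a small-sprayer application of emulsion diluted to the intended rate; injury was rated at 3 weeks.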

[12] = system: Echinochloa crus-galli var. crus-galli; assay: Test Example 5: herbicidal effect by foliage application, plastic box (symbol H); details: 320 g/ha, 3 weeks after application
Outline: as §1

[13] = system: Stellaria media; assay: Test Example 5: herbicidal effect by foliage application, plastic box (symbol P); details: 320 g/ha, 3 weeks after application
Outline: as §1

[14] = system: soybean; assay: Test Example 5: effect on crop by foliage application, plastic box (symbol d); details: 320 g/ha, 3 weeks after application
Outline: as §2

[15] = system: Echinochloa crus-galli var. crus-galli; assay: Test Example 3: herbicidal effect by foliage application, Wagner pot (symbol H); details: application herbicide amount 320 g/ha
Outline: as §4

[16] = system: Abutilon theophrasti; assay: Test Example 5: herbicidal effect by foliage application, plastic box (symbol M); details: 320 g/ha, 3 weeks after application
Outline: as §1

[17] = system: Lolium multiflorum Lam.; assay: Test Example 5: herbicidal effect by foliage application, plastic box (symbol K); details: 320 g/ha, 3 weeks after application
Outline: as §1

[18] = system: Digitaria ciliaris; assay: Test Example 5: herbicidal effect by foliage application, plastic box (symbol F); details: 320 g/ha, 3 weeks after application
Outline: as §1

[19] = system: wheat; assay: Test Example 5: effect on crop by foliage application, plastic box (symbol e); details: 320 g/ha, 3 weeks after application
Outline: as §2

[20] = system: Chenopodium album; assay: Test Example 5: herbicidal effect by foliage application, plastic box (symbol O); details: 320 g/ha, 3 weeks after application
Outline: as §1

[21] = system: transplanted rice plant; assay: Test Example 1: effect on crop, application before weed generation in submerged conditions (symbol a); details: application herbicide amount 320 g/ha
Outline: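 Alluvial soil pots flooded to 4 cm water, sown with Echinochloa oryzacola, Scirpus juncoides and Monochoria vaginalis, then transplanted with 2.5 leaf stage rice seedlings; pre-emergence application. Greenhouse 25° C. to 30° C.; scored 0–5 by herbicidal ratio 3 weeks after application.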

[22] = system: Monochoria vaginalis; assay: Test Example 1: herbicidal activity, application before weed generation in submerged conditions (symbol C); details: application herbicide amount 320 g/ha
Text: Herbicidal Activity Test by Application Before Weed Generation in Submerged Conditions
After alluvial soil was placed into 1/10000 are of Wagner pot, water was poured and mixed to form a submerged condition having a water depth of 4 cm. Seeds of Echinochloa oryzacola Vasing., Scirpus juncoides, and Monochoria vaginalis were sowed in a mixed manner in the above pot and thereafter 2.5 leaf stage rice plant seedlings were transplanted thereto. On the day of sowing seeds, the emulsion agent of the compound of the present invention prepared in accordance with Formulation Example 2 was diluted with water so as to be a predetermined herbicide amount and the diluted emulsion agent was applied to the surface of the water. The pot was placed in a greenhouse of 25° C. to 30° C. to grow plant. 3 weeks later from the herbicide application, the effect to each plant was investigated in accordance with the following criteria.
5 Herbicidal ratio of 90% or more (almost completely withered)
4 Herbicidal ratio of 70% or higher and lower than 90%
3 Herbicidal ratio of 40% or higher and lower than 70%
2 Herbicidal ratio of 20% or higher and lower than 40%
1 Herbicidal ratio of 5% or higher and lower than 20%
0 Herbicidal ratio of 5% or lower (almost no effect)

[23] = system: Cyperus difformis; assay: Test Example 3: herbicidal effect by foliage application, Wagner pot (symbol E); details: application herbicide amount 320 g/ha
Outline: as §4

[24] = system: corn; assay: Test Example 5: effect on crop by foliage application, plastic box (symbol c); details: 320 g/ha, 3 weeks after application
Outline: as §2

[25] = system: beet; assay: Test Example 5: effect on crop by foliage application, plastic box (symbol f); details: 320 g/ha, 3 weeks after application
Outline: as §2

[26] = system: Galium spurium; assay: Test Example 5: herbicidal effect by foliage application, plastic box (symbol Q); details: 320 g/ha, 3 weeks after application
Outline: as §1

[27] = system: Setaria viridis; assay: Test Example 5: herbicidal effect by foliage application, plastic box (symbol G); details: 320 g/ha, 3 weeks after application
Outline: as §1

Compound	I: Avena fatua, herbicidal effect (criteria of Test Example 1) [1]	b: directly sowed rice plant, effect on crop (criteria of Test Example 1) [2]	g: rapeseed, effect on crop (criteria of Test Example 1) [3]	Herbicidal effect grade, A: Echinochloa oryzacola Vasing. [4]	Herbicidal effect grade, B: Scirpus juncoides [5]	L: Apera spica-venti, herbicidal effect (criteria of Test Example 1) [6]	R: Veronica persica, herbicidal effect (criteria of Test Example 1) [7]	J: Alopecurus myosuroides, herbicidal effect (criteria of Test Example 1) [8]	N: Amaranthus retroflexus, herbicidal effect (criteria of Test Example 1) [10]	H: Echinochloa crus-galli var. crus-galli, herbicidal effect (criteria of Test Example 1) [12]	P: Stellaria media, herbicidal effect (criteria of Test Example 1) [13]	d: soybean, effect on crop (criteria of Test Example 1) [14]	M: Abutilon theophrasti, herbicidal effect (criteria of Test Example 1) [16]	K: Lolium multiflorum Lam., herbicidal effect (criteria of Test Example 1) [17]	F: Digitaria ciliaris, herbicidal effect (criteria of Test Example 1) [18]	e: wheat, effect on crop (criteria of Test Example 1) [19]	O: Chenopodium album, herbicidal effect (criteria of Test Example 1) [20]	Effect grade on crop, a: transplanted rice plant [21]	Herbicidal effect grade, C: Monochoria vaginalis [22]	c: corn, effect on crop (criteria of Test Example 1) [24]	further results
CCCC=Cc1cc(C)c(C2=C(O)CC(CC(C)=O)C2=O)c(C)c1 (stereo not drawn) [7-022]	0 (Herbicidal ratio of 5% or lower (almost no effect))	0 (Herbicidal ratio of 5% or lower (almost no effect))	0 (Herbicidal ratio of 5% or lower (almost no effect))	4 (Herbicidal ratio of 70% or higher and lower than 90%)	2 (Herbicidal ratio of 20% or higher and lower than 40%)	0 (Herbicidal ratio of 5% or lower (almost no effect))	0 (Herbicidal ratio of 5% or lower (almost no effect))	0 (Herbicidal ratio of 5% or lower (almost no effect))	0 (Herbicidal ratio of 5% or lower (almost no effect))	1 (Herbicidal ratio of 5% or higher and lower than 20%)	0 (Herbicidal ratio of 5% or lower (almost no effect))	0 (Herbicidal ratio of 5% or lower (almost no effect))	0 (Herbicidal ratio of 5% or lower (almost no effect))	2 (Herbicidal ratio of 20% or higher and lower than 40%)	0 (Herbicidal ratio of 5% or lower (almost no effect))	0 (Herbicidal ratio of 5% or lower (almost no effect))	0 (Herbicidal ratio of 5% or lower (almost no effect))	3 (Herbicidal ratio of 40% or higher and lower than 70%)	3 (Herbicidal ratio of 40% or higher and lower than 70%)	0 (Herbicidal ratio of 5% or lower (almost no effect))	effect on crop b (directly sowed rice plant), grade 0-5 [9]: 0 (Herbicidal ratio of 5% or lower (almost no effect)); herbicidal effect on D (Leptochloa chinensis), grade 0-5 [11]: 4 (Herbicidal ratio of 70% or higher and lower than 90%); herbicidal effect on H (Echinochloa crus-galli var. crus-galli), grade 0-5 [15]: 0 (Herbicidal ratio of 5% or lower (almost no effect)); herbicidal effect on E, grade 0-5 [23]: 0 (Herbicidal ratio of 5% or lower (almost no effect)); f: beet, effect on crop (criteria of Test Example 1) [25]: 0 (Herbicidal ratio of 5% or lower (almost no effect)); Q: Galium spurium, herbicidal effect (criteria of Test Example 1) [26]: 0 (Herbicidal ratio of 5% or lower (almost no effect)); G: Setaria viridis, herbicidal effect (criteria of Test Example 1) [27]: 0 (Herbicidal ratio of 5% or lower (almost no effect))
CC(=O)CC1CC(O)=C(c2c(C)cc(-n3cncn3)cc2C)C1=O (stereo not drawn) [7-026]	0 (Herbicidal ratio of 5% or lower (almost no effect))	0 (Herbicidal ratio of 5% or lower (almost no effect))	0 (Herbicidal ratio of 5% or lower (almost no effect))	3 (Herbicidal ratio of 40% or higher and lower than 70%)	0 (Herbicidal ratio of 5% or lower (almost no effect))	0 (Herbicidal ratio of 5% or lower (almost no effect))	0 (Herbicidal ratio of 5% or lower (almost no effect))	1 (Herbicidal ratio of 5% or higher and lower than 20%)	0 (Herbicidal ratio of 5% or lower (almost no effect))	1 (Herbicidal ratio of 5% or higher and lower than 20%)	0 (Herbicidal ratio of 5% or lower (almost no effect))	0 (Herbicidal ratio of 5% or lower (almost no effect))	0 (Herbicidal ratio of 5% or lower (almost no effect))	1 (Herbicidal ratio of 5% or higher and lower than 20%)	0 (Herbicidal ratio of 5% or lower (almost no effect))	0 (Herbicidal ratio of 5% or lower (almost no effect))	0 (Herbicidal ratio of 5% or lower (almost no effect))	0 (Herbicidal ratio of 5% or lower (almost no effect))	0 (Herbicidal ratio of 5% or lower (almost no effect))	0 (Herbicidal ratio of 5% or lower (almost no effect))	b (directly sowed rice plant) effect on crop grade ([9]; Table 24): 0 (Herbicidal ratio of 5% or lower (almost no effect)); D (Leptochloa chinensis) herbicidal effect grade ([11]; Table 24): 3 (Herbicidal ratio of 40% or higher and lower than 70%); H (Echinochloa crus-galli var. crus-galli) herbicidal effect grade ([15]; Table 24): 0 (Herbicidal ratio of 5% or lower (almost no effect)); E herbicidal effect grade ([23]; Table 24): 0 (Herbicidal ratio of 5% or lower (almost no effect)); f: beet, effect on crop (criteria of Test Example 1) [25]: 0 (Herbicidal ratio of 5% or lower (almost no effect)); Q: Galium spurium, herbicidal effect (criteria of Test Example 1) [26]: 0 (Herbicidal ratio of 5% or lower (almost no effect)); G: Setaria viridis, herbicidal effect (criteria of Test Example 1) [27]: 0 (Herbicidal ratio of 5% or lower (almost no effect))
